Measurements: PubChem BioAssay AID192 (DTP/NCI, 2004)
Where “and” joins values, the source holds several entries; their conditions need not be identical. Identical values can stand only once. Inconclusive results and toxic doses are left out. How the source made its calls: active means survival T/C of 150% or more; inactive means T/C below 125% in these data.

System: BDF1 mice, B16 melanoma ip, median survival T/C
Experiment: NCI In Vivo Anticancer Drug Screen. Data for tumor model B16 Melanoma (intraperitoneal) in B6D2F1 (BDF1) mice
Settings: endpoint: median survival time, higher = longer survival
How it was run: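 Read-out: survival or tumor size, given as treated/control ratio. Controls received vehicle only; animals bore transplantable tumors.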

[1] = dose: 100.0 mg/kg/injection, schedule: Q01DX009 (ip), vehicle: Klucel (hydroxypropylcellulose) (HPC)
[2] = dose: 200.0 mg/kg/injection, schedule: Q01DX009 (ip), vehicle: Klucel (hydroxypropylcellulose) (HPC)
[3] = dose: 400.0 mg/kg/injection, schedule: Q01DX009 (ip), vehicle: Klucel (hydroxypropylcellulose) (HPC)
[4] = dose: 5.0 mg/kg/injection, schedule: Q01DX009 (ip), vehicle: saline with Tween-80
[5] = dose: 10.0 mg/kg/injection, schedule: Q01DX009 (ip), vehicle: saline with Tween-80
[6] = dose: 12.5 mg/kg/injection, schedule: Q01DX009 (ip), vehicle: saline with Tween-80
[7] = dose: 25.0 mg/kg/injection, schedule: Q01DX009 (ip), vehicle: saline with Tween-80
[8] = dose: 3.12 mg/kg/injection, schedule: Q01DX009 (ip), vehicle: Klucel (hydroxypropylcellulose) (HPC)
[9] = dose: 12.5 mg/kg/injection, schedule: Q01DX009 (ip), vehicle: Klucel (hydroxypropylcellulose) (HPC)
[10] = dose: 25.0 mg/kg/injection, schedule: Q01DX009 (ip), vehicle: Klucel (hydroxypropylcellulose) (HPC)
[11] = dose: 50.0 mg/kg/injection, schedule: Q01DX009 (ip), vehicle: Klucel (hydroxypropylcellulose) (HPC)
[12] = dose: 50.0 mg/kg/injection, schedule: Q01DX009 (ip), vehicle: saline with Tween-80

Measured: T/C

CSc1ncnc2c1ncn2C1OC(CO)C(O)C1O (stereo unspecified)
inactive: dose: 2.0 mg/kg/injection, schedule: Q01DX009 (ip), vehicle: saline sonified 95 % of control | dose: 4.0 mg/kg/injection, schedule: Q01DX009 (ip), vehicle: saline sonified 88 % of control | dose: 7.5 mg/kg/injection, schedule: Q01DX009 (ip), vehicle: saline with Tween-80 100 % of control | dose: 8.0 mg/kg/injection, schedule: Q01DX009 (ip), vehicle: saline sonified 86 % of control | dose: 15.0 mg/kg/injection, schedule: Q01DX009 (ip), vehicle: saline with Tween-80 97 % of control | dose: 16.0 mg/kg/injection, schedule: Q01DX009 (ip), vehicle: saline sonified 95 % of control

COC12C(COC(N)=O)C3=C(C(=O)C(C)=C(N)C3=O)N1CC1C2N1C (stereo unspecified)
inactive: dose: 0.25 mg/kg/injection, schedule: Q01DX009 (ip), vehicle: saline 120 % of control | dose: 0.5 mg/kg/injection, schedule: Q01DX009 (ip), vehicle: saline 123 % of control | dose: 1.0 mg/kg/injection, schedule: Q01DX009 (ip), vehicle: saline 114 % of control | dose: 2.0 mg/kg/injection, schedule: Q01DX009 (ip), vehicle: Klucel (hydroxypropylcellulose) (HPC) 106 % of control | dose: 4.0 mg/kg/injection, schedule: Q01DX009 (ip), vehicle: Klucel (hydroxypropylcellulose) (HPC) 124 % of control

Cc1noc(C)c1CON
inactive: dose: 12.5 mg/kg/injection, schedule: Q04DX003 (ip), vehicle: saline 118 % of control | dose: 25.0 mg/kg/injection, schedule: Q04DX003 (ip), vehicle: saline 118 % of control | dose: 50.0 mg/kg/injection, schedule: Q04DX003 (ip), vehicle: saline 123 % of control

C=C(CCC(C(=O)O)C1CCC2(C)C3=C(CCC12C)C1(C)CCC(O)C(C)(C)C1CC3)C(C)C (stereo unspecified)
inactive: dose: 20.0 mg/kg/injection, schedule: Q01DX009 (sc), vehicle: steriod suspending solution 98 % of control | dose: 40.0 mg/kg/injection, schedule: Q01DX009 (sc), vehicle: steriod suspending solution 105 % of control | dose: 80.0 mg/kg/injection, schedule: Q01DX009 (sc), vehicle: steriod suspending solution 101 % of control | dose: 160.0 mg/kg/injection, schedule: Q01DX009 (sc), vehicle: steriod suspending solution 92 % of control | dose: 165.0 mg/kg/injection, schedule: Q01DX009 (sc), vehicle: steriod suspending solution 94 % of control | dose: 250.0 mg/kg/injection, schedule: Q01DX009 (sc), vehicle: steriod suspending solution 102 % of control

Cc1ccc2c(c1)C(=O)c1ccccc1S2(=O)=O
inactive: [1] 104 % of control | [2] 98 % of control | [3] 93 % of control

O=C(O)CC[P+](c1ccccc1)(c1ccccc1)c1ccccc1
inactive: dose: 100.0 mg/kg/injection, schedule: Q04DX003 (ip), vehicle: saline 101 % of control | dose: 200.0 mg/kg/injection, schedule: Q04DX003 (ip), vehicle: saline 116 % of control | dose: 400.0 mg/kg/injection, schedule: Q04DX003 (ip), vehicle: saline 116 % of control

Cc1ccc(Cl)cc1N=Cc1ccccc1O
inactive: dose: 100.0 mg/kg/injection, schedule: Q04DX003 (ip), vehicle: saline with Tween-80 104 % of control | dose: 200.0 mg/kg/injection, schedule: Q04DX003 (ip), vehicle: saline with Tween-80 100 % of control | dose: 400.0 mg/kg/injection, schedule: Q04DX003 (ip), vehicle: saline with Tween-80 104 % of control

CCC/C(C)=N/Nc1ccccn1
inactive: dose: 12.5 mg/kg/injection, schedule: Q01DX009 (ip), vehicle: saline sonified 97 % of control | dose: 25.0 mg/kg/injection, schedule: Q01DX009 (ip), vehicle: saline sonified 95 % of control | dose: 50.0 mg/kg/injection, schedule: Q01DX009 (ip), vehicle: saline sonified 97 % of control | dose: 100.0 mg/kg/injection, schedule: Q01DX009 (ip), vehicle: saline sonified 100 % of control

CC1=CC(O)C(O)C2(C)C1CC(=O)C13COC4OC(CC1C4=O)C(O)C32 (stereo unspecified)
inactive: dose: 0.4 mg/kg/injection, schedule: Q01DX009 (ip), vehicle: saline with Tween-80 106 % of control | dose: 0.8 mg/kg/injection, schedule: Q01DX009 (ip), vehicle: saline with Tween-80 110 % of control | dose: 1.6 mg/kg/injection, schedule: Q01DX009 (ip), vehicle: saline with Tween-80 113 % of control | dose: 3.2 mg/kg/injection, schedule: Q01DX009 (ip), vehicle: saline with Tween-80 110 % of control | [4] 90 % of control | [5] 91 % of control

Nc1nnc[se]1
inactive: dose: 3.13 mg/kg/injection, schedule: Q01DX009 (ip), vehicle: saline with Tween-80 106 % of control | dose: 6.25 mg/kg/injection, schedule: Q01DX009 (ip), vehicle: saline with Tween-80 97 % of control | [6] 102 % of control | [7] 115 % of control

c1cc[c]([Pb]([S]c2nc3ccccc3[nH]2)([c]2ccccc2)[c]2ccccc2)cc1
inactive: dose: 0.75 mg/kg/injection, schedule: Q01DX009 (ip), vehicle: Klucel (hydroxypropylcellulose) (HPC) 100 % of control | dose: 1.5 mg/kg/injection, schedule: Q01DX009 (ip), vehicle: Klucel (hydroxypropylcellulose) (HPC) 94 % of control

CCCCNC(=O)C1C=C2c3cccc4[nH]cc(c34)CC2N(C)C1 (stereo unspecified)
inactive: [8] 93 % of control | [9] 91 % of control | [10] 93 % of control | [11] 96 % of control

CC(=O)c1ccccc1C
inactive: [6] 102 % of control | [7] 108 % of control | [12] 92 % of control and 123 % of control

C=CCNCC(O)c1ccccc1 (stereo unspecified)
inactive: [10] 103 % of control | [11] 106 % of control | [1] 109 % of control

CN(CCN(C)Cc1ccccc1)Cc1ccccc1
inactive: dose: 25.0 mg/kg/injection, schedule: Q01DX009 (ip), vehicle: saline 100 % of control | dose: 50.0 mg/kg/injection, schedule: Q01DX009 (ip), vehicle: saline 92 % of control

O=C(CCBr)N1CCN(C(=O)CCBr)CC1
inactive: dose: 2.5 mg/kg/injection, schedule: Q01DX009 (ip), vehicle: saline with Tween-80 100 % of control | [4] 102 % of control | dose: 5.0 mg/kg/injection, schedule: Q01DX009 (ip), vehicle: saline 109 % of control | [5] 104 % of control | dose: 10.0 mg/kg/injection, schedule: Q01DX009 (ip), vehicle: saline 111 % of control and 117 % of control | dose: 20.0 mg/kg/injection, schedule: Q01DX009 (ip), vehicle: saline with Tween-80 116 % of control | dose: 20.0 mg/kg/injection, schedule: Q01DX009 (ip), vehicle: saline 119 % of control | dose: 40.0 mg/kg/injection, schedule: Q01DX009 (ip), vehicle: saline with Tween-80 122 % of control

CC(C)(COC(=O)c1ccccc1)COC(=O)c1ccccc1
inactive: [1] 111 % of control | [2] 105 % of control | [3] 99 % of control

O=C(CCCN1CCC(n2c(=O)[nH]c3ccccc32)CC1)c1ccc(F)cc1
inactive: dose: 0.78 mg/kg/injection, schedule: Q01DX009 (ip), vehicle: Klucel (hydroxypropylcellulose) (HPC) 121 % of control | [8] 86 % of control | dose: 6.25 mg/kg/injection, schedule: Q01DX009 (ip), vehicle: Klucel (hydroxypropylcellulose) (HPC) 92 % of control | [9] 89 % of control | [10] 89 % of control and 94 % of control

CCC(=O)Nc1cc(C(F)(F)F)ccc1Cl
inactive: [7] 100 % of control | [12] 101 % of control and 119 % of control | dose: 100.0 mg/kg/injection, schedule: Q01DX009 (ip), vehicle: saline with Tween-80 96 % of control and 105 % of control | dose: 200.0 mg/kg/injection, schedule: Q01DX009 (ip), vehicle: saline with Tween-80 105 % of control

CC1CC(C)(O)CC(C(O)CC2CC(=O)NC(=O)C2)C1=O (stereo unspecified)
inactive: dose: 0.98 mg/kg/injection, schedule: Q04DX003 (ip), vehicle: saline 111 % of control | dose: 1.4 mg/kg/injection, schedule: Q04DX003 (ip), vehicle: saline 100 % of control | dose: 2.0 mg/kg/injection, schedule: Q04DX003 (ip), vehicle: saline 91 % of control | dose: 2.86 mg/kg/injection, schedule: Q04DX003 (ip), vehicle: saline 102 % of control
